PubChem BioAssay AID1963421 (Molecular Pharmacology Branch, DTP, NCI, 2024)

System: 519858-162-T-J1-PDC complex spheroid growth, % test/control
Assay: Anticancer human tumor 519858-162-T-J1-PDC patient-derived colon adenocarcinoma cell line growth inhibition [Asc]
Conditions: for IC50: curve of first compound; for viability, T/C: stronger effect = lower value
Method in brief: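 Tumor cells were grown as complex spheroids with human endothelial cells (HUVEC) and human mesenchymal stem cells as stroma. Agents were tested alone and in combination, in half-log steps down from the clinical Cmax, or from 10 microM where Cmax was unknown.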
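Also: seven day drug exposure begun three days after spheroid seeding.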
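For viability, T/C in this document: 100% = DMSO vehicle wells and lower values mean less viable spheroid.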

Compound: Cc1nc(N2CCC3(CC2)COC(C)C3N)c(CO)nc1Sc1ccnc(N)c1Cl (configuration not stated) + Cc1c(S(C)(=O)=O)c(-c2cc(F)cc(N3CCN(c4ccc(NS(=O)(=O)c5ccc(NC(CCN6CCC(C(=O)OCCCP(=O)(O)O)CC6)CSc6ccccc6)c(S(=O)(=O)C(F)(F)F)c5)cc4)CC3)c2)c(-c2ccc(Cl)cc2)n1C(C)C
- IC50 (second compound 0.0316 µM): 2100 nM
- IC50 (second compound 0.1 µM): 823 nM
- IC50 (second compound 0.316 µM): > 3000 nM
- IC50 (second compound 1 µM): > 3000 nM
- IC50 (second compound 3.16 µM): > 3000 nM
- IC50 (second compound 10 µM): > 3000 nM
- viability, T/C (second compound 0.0316 µM, first compound 0.00949 µM): 90.4%
- viability, T/C (second compound 0.0316 µM, first compound 0.03 µM): 106%
- viability, T/C (second compound 0.0316 µM, first compound 0.0949 µM): 47.1%
- viability, T/C (second compound 0.0316 µM, first compound 0.3 µM): 73.5%
- viability, T/C (second compound 0.0316 µM, first compound 0.949 µM): 68%
- viability, T/C (second compound 0.0316 µM, first compound 3 µM): 39.9%
- viability, T/C (second compound 0.1 µM, first compound 0.00949 µM): 109%
- viability, T/C (second compound 0.1 µM, first compound 0.03 µM): 105%
- viability, T/C (second compound 0.1 µM, first compound 0.0949 µM): 78.5%
- viability, T/C (second compound 0.1 µM, first compound 0.3 µM): 63.9%
- viability, T/C (second compound 0.1 µM, first compound 0.949 µM): 47.3%
- viability, T/C (second compound 0.1 µM, first compound 3 µM): 43.6%
- viability, T/C (second compound 0.316 µM, first compound 0.00949 µM): 81.5%
- viability, T/C (second compound 0.316 µM, first compound 0.03 µM): 92.9%
- viability, T/C (second compound 0.316 µM, first compound 0.0949 µM): 68%
- viability, T/C (second compound 0.316 µM, first compound 0.3 µM): 101%
- viability, T/C (second compound 0.316 µM, first compound 0.949 µM): 68.4%
- viability, T/C (second compound 0.316 µM, first compound 3 µM): 50.5%
- viability, T/C (second compound 1 µM, first compound 0.00949 µM): 92.5%
- viability, T/C (second compound 1 µM, first compound 0.03 µM): 68.5%
- viability, T/C (second compound 1 µM, first compound 0.0949 µM): 52.5%
- viability, T/C (second compound 1 µM, first compound 0.3 µM): 75.5%
- viability, T/C (second compound 1 µM, first compound 0.949 µM): 43.2%
- viability, T/C (second compound 1 µM, first compound 3 µM): 53.7%
- viability, T/C (second compound 3.16 µM, first compound 0.00949 µM): 71.4%
- viability, T/C (second compound 3.16 µM, first compound 0.03 µM): 95.6%
- viability, T/C (second compound 3.16 µM, first compound 0.0949 µM): 67.6%
- viability, T/C (second compound 3.16 µM, first compound 0.3 µM): 62.8%
- viability, T/C (second compound 3.16 µM, first compound 0.949 µM): 74.8%
- viability, T/C (second compound 3.16 µM, first compound 3 µM): 56.2%
- viability, T/C (second compound 10 µM, first compound 0.00949 µM): 68.9%
- viability, T/C (second compound 10 µM, first compound 0.03 µM): 86.4%
- viability, T/C (second compound 10 µM, first compound 0.0949 µM): 61.1%
- viability, T/C (second compound 10 µM, first compound 0.3 µM): 59.8%
- viability, T/C (second compound 10 µM, first compound 0.949 µM): 64%
- viability, T/C (second compound 10 µM, first compound 3 µM): 76.5%
